For assay [1], the system named is human vascular smooth muscle cells (HAOSMC). In words: procoagulant activity of human vascular smooth muscle cells (thrombin formation in recalcified platelet-poor plasma). The format is cell-based. Particulars: additional administration of thrombin; cells expressing sgk-WT or sgk-MT; effect more pronounced and more rapid with intact kinase. On the procedure: In FIG. 1, the procoagulant activity, in % of the maximum value, is plotted against the time after recalcification. In the experiment relating to FIG. 1, the procoagulant activity of human vascular smooth muscle cells (HAOSMC) was measured by measuring thrombin formation during the coagulation process in recalcified blood platelet-poor plasma (PPP) (Beguin S, Lidhout T, Hemker H C: Throm. Haemost. 61: 25-29, […]). For this, confluent vascular smooth muscle cells were kept for 24 hours in serum-free medium, then washed three times in HEPES-tyrode solution, and then incubated with human PPP. The formation of thrombin was induced by adding 16.7 mM CaCl2 to the incubation medium. In each case 20 μl of the supernatant were removed every one to two minutes and the formation of thrombin in the removed volume was determined using the dye S-2238 (Haemochrom Diagnostica). The optical density was determined at 405 nm in a spectrophotometer (Uvikon, Contron-instruments).

Assay [2] has as its system tissue factor mRNA (TF mRNA). In words: Northern blot of tissue factor mRNA in human vascular smooth muscle cells. The format is cell-based. The following applies: thrombin 3 U/ml for 4 hours. How it is done: The cells are human vascular smooth muscle cells equivalent to the cells used in the above experiment. 28S rRNA is loaded on as the internal standard. Human TF cDNA was used as the probe. The cells were in each case treated without and with thrombin (3 U/ml) for 4 hours.

We go through one substance from patent US20120149765A1, “SGK1 AS DIAGNOSTIC AND THERAPEUTIC TARGET” (priority 2003, published 2012).

For the substance thrombin, the “increase in procoagulant activity, in % of the maximum value, against time after recalcification” value in assay [1] is recorded as “accelerated”. Moreover, the “transcription of the tissue factor mRNA” value in assay [2] (cells containing active SGK (W) as compared with control cells) is reported as “upregulated”; in assay [2] (cells containing inactive SGK mutant (M)), “reduced”.
